# Assay results as given in patent publication US20160325911A1, “ANTIMICROBIAL COMPOSITIONS FOR FOOD PACKAGING CONSISTING OF SALICYLALDEHYDE AND CARVACROL, THYMOL OR THEIR MIXTURE” (INSTITUTO TECNOLÓGICO DEL EMBALAJE, TRANSPORTE Y LOGÍSTICA, priority 2014, published 2016).
# Columns and labels:
# Type in all cases: cell-based
# Settings in all cases: alone or as component of the blend, 20 h at 36° C. in TSB
# [1] = system: Pseudomonas aeruginosa (strain ATCC 27853); assay: Broth dilution MIC and synergy index against Pseudomonas aeruginosa
# Experimental: (§1) Solutions containing carvacrol, thymol and salicylaldehyde were assessed for antimicrobial activity against three different reference microorganisms: • Gram negative bacteria—Escherichia coli (strain ATCC 8739) • Gram negative bacteria—Pseudomonas aeruginosa (strain ATCC 27853) • Gram positive bacteria—Staphylococcus aureus (strain ATCC6538)
# (§2) The microorganisms were collected from the “Colección Española de Cultivos Tipo” (CECT), University of Valencia. They were collected in the form of a lyophilized inoculum and were refreshed by regular seeding in solid culture media. After the grown, the stock culture was kept under refrigeration. Prior to the analysis, the microorganisms were recultured 3-4 times by diluting colonies in tryptic soy broth (TSB) and incubating overnight at 36° C.
# (§3) The day prior to the assay, the colonies are touched with a loop and transferred to tryptic soy broth (TBS) (100 mL). The broth is incubated at 36° C. overnight until the growth reaches a turbidity equal or similar to 10^9 colony-forming units per millilitre (CFU/mL). The culture is adjusted to give a turbidity equivalent to 0.18 absorbance units in order to confirm the inoculum is in the exponential growth phase (around 10^5-10^6 CFU/mL). The measurement is carried out by using a UV-VIS spectrometer, operating at 550 nm and a 1-cm path cell. […]
# (§4) The antimicrobial efficacy of Carvacrol, Thymol and Salycylaldehyde and their blends, was determined as Minimum Inhibitory Concentration (MIC). MIC is recorded as the lowest product concentration that inhibits growth. […]
# (§5) Where: • CM is the MIC of the substance n when used in a blend, that is, in combination with the rest of antimicrobial compounds analysed. • CS is the MIC of the substance when used alone.
# (§6) SI below 1 indicates synergy effect and p-value has been calculated as the probability of obtaining the observed sample results (or a more extreme result) when the null hypothesis is actually true. […]
# [2] = system: Escherichia coli (strain ATCC 8739); assay: Broth dilution MIC and synergy index against Escherichia coli
# Experimental: as §1, §2, §3, §4, §5, §6
# [3] = system: Staphylococcus aureus (strain ATCC6538); assay: Broth dilution MIC and synergy index against Staphylococcus aureus
# Experimental: as §1, §2, §3, §4, §5, §6
# [4] = amount of salicylaldehyde at the MIC
smiles,measurement,setting,value
"O=Cc1ccccc1O [Salicylaldehyde, salicylaldehyde]","MIC Pseudomonas aeruginosa, Salicylaldehyde",[1]; [4],2.25 mg
same,"MIC Escherichia coli, Salicylaldehyde",[2]; [4],4.75 mg
same,"MIC Staphylococcus aureus, Salicylaldehyde",[3]; [4],4.75 mg
"Cc1ccc(C(C)C)cc1O [Carvacrol, carvacrol]","MIC Pseudomonas aeruginosa, Carvacrol",[1]; amount of carvacrol at the MIC,7.5 mg
same,"MIC Escherichia coli, Carvacrol",[2]; amount of carvacrol at the MIC,3 mg
same,"MIC Staphylococcus aureus, Carvacrol",[3]; amount of carvacrol at the MIC,2.1 mg
"Cc1ccc(C(C)C)c(O)c1 [Thymol, thymol]","MIC Pseudomonas aeruginosa, Thymol",[1]; amount of thymol at the MIC,4.5 mg
same,"MIC Escherichia coli, Thymol",[2]; amount of thymol at the MIC,2 mg
same,"MIC Staphylococcus aureus, Thymol",[3]; amount of thymol at the MIC,1.1 mg
